This note sets out measurements from patent US11377441B2, “Covalent inhibitors of KRAS” (Araxes Pharma LLC, priority 2017, dated 2022).

The assay addresses T1, KRAS G12C 1-169, his-tagged protein, GDP-loaded (Homo sapiens, UniProt P01116, G12C).
T1 construct: KRAS G12C 1-169, his-tagged protein, GDP-loaded
Nature of the assay: Biochemical assay: covalent modification of KRAS G12C measured by mass spectrometry (RapidFire/TOF or Q-Exactive). It is filed as binding. To be noted: covalent binding to (modification of) KRAS G12C after a ten minute incubation period. In short, it runs like this:
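GDP-loaded KRAS G12C 1-169 (his-tagged) at 2 μM or 0.5 μM in 20 mM Hepes, 150 mM NaCl, 1 mM MgCl2, incubated with compound at 100, 30 or 10 μM at room temperature for 10 min, 30 min, 2 h or 24 h, then quenched with formic acid. Intact-protein LC-MS, deconvolved; percent modification from modified versus unmodified protein.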

Molecules are shown by their SMILES.

Take `C=CC(=O)N1C[C@H](C)N(c2nc(OC[C@@H]3CN(C)CCO3)nc3c(F)c(-c4c(C)ccc5[nH]nc(C)c45)c(Cl)cc23)C[C@H]1C` [Compound 188, 1-((2R,5S)-4-(6-chloro-7-(3,5-dimethyl-1H-indazol-4-yl)-8-fluoro-2-(((S)-4-methylmorpholin-2-yl)methoxy)quinazolin-4-yl)-2,5-dimethylpiperazin-1-yl)prop-2-en-1-one]: the Binding % result was “+++ (+++ indicates binding activity greater than 80%)”.

Turning to `C=CC(=O)N1C[C@H](C)N(c2nc(OC[C@H]3CN(C)CCO3)nc3c(F)c(-c4c(C)ccc5[nH]nc(C6CC6)c45)c(Cl)cc23)C[C@H]1C` [Compound 189, 1-((2R,5S)-4-(6-chloro-7-(3-cyclopropyl-5-methyl-1H-indazol-4-yl)-8-fluoro-2-(((R)-4-methylmorpholiln-2-yl)methoxy)quinazolin-4-yl)-2,5-dimethylpiperazin-1-yl)prop-2-en-1-one], the Binding % result was “+++ (+++ indicates binding activity greater than 80%)”.

For `C=CC(=O)N1C[C@H](C)N(c2nc(OC[C@H]3CN(C)CCO3)nc3c(F)c(-c4c(C)ccc5[nH]nc(C)c45)c(Cl)cc23)C[C@H]1C` [Compound 190, 1-((2R,5S)-4-(6-chloro-7-(3,5-dimethyl-1H-indazol-4-yl)-8-fluoro-2-(((R)-4-methylmorpholin-2-yl)methoxy)quinazolin-4-yl)-2,5-dimethylpiperazin-1-yl)prop-2-en-1-one], the Binding % entry is “+++ (+++ indicates binding activity greater than 80%)”.

On to `C=CS(=O)(=O)N1C[C@H](C)N(c2nc(N3CC(N(C)C)C3)nc3c(F)c(-c4c(C)ccc5cnn(C)c45)c(Cl)cc23)C[C@H]1C` [Compound 191, 1-(6-chloro-7-(1,6-dimethyl-1H-indazol-7-yl)-4-((2S,5R)-2,5-dimethyl-4-(vinylsulfonyl)piperazin-1-yl)-8-fluoroquinazolin-2-yl)-N,N-dimethylazetidin-3-amine], for which the Binding % entry was “+ (+ indicates binding activity greater than 0% and up to 50%)”.

In the case of `C=CC(=O)N1C[C@H](C)N(c2nc(N3CC(N(C)C)C3)nc3c(F)c(-c4c(C)ccc5[nH]nc(C)c45)c(C(F)(F)F)cc23)C[C@H]1C` [Compound 192, 1-((2R,5S)-4-(7-(3,5-dimethyl-1H-indazol-4-yl)-2-(3-(dimethylamino)azetidin-1-yl)-8-fluoro-6-(trifluoromethyl)quina-zolin-4-yl)-2,5-dimethylpiperazin-1-yl)prop-2-en-1-one], the Binding % entry is “+++ (+++ indicates binding activity greater than 80%)”.

Take `C=CC(=O)N1C[C@H](C)N(c2nc(N3CC(N(C)C)C3)nc3c(F)c(-c4c(C)ccc5[nH]nc(C6CC6)c45)c(C(F)(F)F)cc23)C[C@H]1C` [Compound 193, 1-((2R,5S)-4-(7-(3-cyclopropyl-5-methyl-1H-indazol-4-yl)-2-(3-(dimethylamino)azetidin-1-yl)-8-fluoro-6-(trifluoromethyl)quina-zolin-4-yl)-2,5-dimethylpiperazin-1-yl)prop-2-en-1-one]: the Binding % entry is given as “+++ (+++ indicates binding activity greater than 80%)”.

With `C=CS(=O)(=O)N1C[C@H](C)N(c2nc(N3CC(N(C)C)C3)nc3c(F)c(-c4c(C)ccc5[nH]nc(C)c45)c(Cl)cc23)C[C@H]1C` [Compound 194, 1-(6-chloro-7-(3,5-dimethyl-1H-indazol-4-yl)-4-((2S,5R)-2,5-dimethyl-4-(vinylsulfonyl)piperazin-1-yl)-8-fluoroquinazolin-2-yl)-N,N-dimethylazetidin-3-amine], the Binding % entry is “+ (+ indicates binding activity greater than 0% and up to 50%)”.

Take `C=CC(=O)N1C[C@H](C)N(c2nc(N3CC(N(C)C)C3)nc3c(F)c(-c4c(C)ccc5c(Cl)nn(C)c45)c(Cl)cc23)C[C@H]1C` [Compound 195, 1-((2R,5S)-4-(6-chloro-7-(3-chloro-1,6-dimethyl-1H-indazol-7-yl)-2-(3-(dimethylamino)azetidin-1-yl)-8-fluoroquinazolin-4-yl)-2,5-dimethylpiperazin-1-yl)prop-2-en-1-one]: the Binding % result was “+ (+ indicates binding activity greater than 0% and up to 50%)”.

For the compound `C=CC(=O)N1C[C@H](C)N(c2nc(OC[C@H]3CCN(C)C3)nc3c(F)c(-c4c(C)ccc5cnn(C)c45)c(Cl)cc23)C[C@H]1C` [Compound 196, 1-((2R,5S)-4-(6-chloro-7-(1,6-dimethyl-1H-indazol-7-yl)-8-fluoro-2-(((S)-1-methylpyrrolidin-3-yl)methoxy)quinazolin-4-yl)-2,5-dimethylpiperazin-1-yl)prop-2-en-1-one], the Binding % result is “++ (++ indicates binding activity from 50 to 80%)”.

As for `C=CC(=O)N1C[C@H](C)N(c2nc(OC[C@@H]3C[C@H](OC)CN3C)nc3c(F)c(-c4c(C)ccc5cnn(C)c45)c(Cl)cc23)C[C@H]1C` [Compound 197, 1-((2R,5S)-4-(6-chloro-7-(1,6-dimethyl-1H-indazol-7-yl)-8-fluoro-2-(((2S,4S)-4-methoxy-1-methylpyrrolidin-2-yl)methoxy)quinazolin-4-yl)-2,5-dimethylpiperazin-1-yl)prop-2-en-1-one], the Binding % entry was “+++ (+++ indicates binding activity greater than 80%)”.

As for `C=CC(=O)N1C[C@H](C)N(c2nc(OC[C@H]3CCN(C)C3)nc3c(F)c(-c4c(C)ccc5cnn(C6CC6)c45)c(Cl)cc23)C[C@H]1C` [Compound 198, 1-((2R,5S)-4-(6-chloro-7-(1-cyclopropyl-6-methyl-1H-indazol-7-yl)-8-fluoro-2-(((S)-1-methylpyrrolidin-3-yl)methoxy)quinazolin-4-yl)-2,5-dimethylpiperazin-1-yl)prop-2-en-1-one], the Binding % result is on record as “++ (++ indicates binding activity from 50 to 80%)”.

On to `C=CC(=O)N1C[C@H](C)N(c2nc(OC[C@@H]3C[C@H](OC)CN3C)nc3c(F)c(-c4c(C)ccc5cnn(C6CC6)c45)c(Cl)cc23)C[C@H]1C` [Compound 199, 1-((2R,5S)-4-(6-chloro-7-(1-cyclopropyl-6-methyl-1H-indazol-7-yl)-8-fluoro-2-(((2S,4S)-4-methoxy-1-methylpyrrolidin-2-yl)methoxy)quinazolin-4-yl)-2,5-dimethylpiperazin-1-yl)prop-2-en-1-one], for which the Binding % entry is “+++ (+++ indicates binding activity greater than 80%)”.

For `C=CC(=O)N1C[C@H](C)N(c2nc(N3CC(N(C)C)C3)nc3c(F)c(-c4c(F)ccc5cnn(C6CC6)c45)c(Cl)cc23)C[C@H]1C` [Compound 200, 1-((2R,5S)-4-(6-chloro-7-(1-cyclopropyl-6-fluoro-1H-indazol-7-yl)-2-(3-(dimethylamino)azetidin-1-yl)-8-fluoroquinazolin-4-yl)-2,5-dimethylpiperazin-1-yl)prop-2-en-1-one], the Binding % result is “+ (+ indicates binding activity greater than 0% and up to 50%)”.

With `C=CC(=O)N1C[C@H](C)N(c2nc(N3CC(N(C)C)C3)nc3c(F)c(-c4c(C)ccc5ccn(C)c45)c(Cl)cc23)C[C@H]1C` [Compound 202, 1-((2R,5S)-4-((S)-6-chloro-7-(1,6-dimethyl-1H-indol-7-yl)-2-(3-(dimethylamino)azetidin-1-yl)-8-fluoroquinazolin-4-yl)-2,5-dimethylpiperazin-1-yl)prop-2-en-1-one], the Binding % entry was “+ (+ indicates binding activity greater than 0% and up to 50%)”.

In the case of `C=CC(=O)N1C[C@H](C)N(c2nc(N3CC(N(C)C)C3)nc3c(F)c(-c4c(C)ccc5ccn(C)c45)c(Cl)cc23)C[C@H]1C` [Compound 203, 1-((2R,5S)-4-((R)-6 chloro-7-(1,6-dimethyl-1H-indol-7-yl)-2-(3-(dimethylamino)azetidin-1-yl)-8-fluoroquinazolin-4-yl)-2,5-dimethylpiperazin-1-yl)prop-2-en-1-one], the Binding % result was “+++ (+++ indicates binding activity greater than 80%)”.

For `C=CC(=O)N1C[C@H](C)N(c2nc(OCC(C)(C)N(C)C)nc3c(F)c(-c4c(C)ccc5cnn(C)c45)c(Cl)cc23)C[C@H]1C` [Compound 205, 1-((2R,5S)-4-(6-chloro-7-(1,6-dimethyl-1H-indazol-7-yl)-2-(2-(dimethylamino)-2-methylpropoxy)-8-fluoroquinazolin-4-yl)-2,5-dimethylpiperazin-1-yl)prop-2-en-1-one], the Binding % entry was “+++ (+++ indicates binding activity greater than 80%)”.

Consider `C=CC(=O)N1C[C@H](C)N(c2nc(N3CC(NC)C3)nc3c(F)c(-c4c(C)ccc5[nH]nc(C6CC6)c45)c(Cl)cc23)C[C@H]1C` [Compound 209, 1-((2R,5S)-4-((R)-6-chloro-7-(3-cyclopropyl-5-methyl-1H-indazol-4-yl)-8-fluoro-2-(3-(methylamino)azetidin-1-yl)quinazolin-4-yl)-2,5-dimethylpiperazin-1-yl)prop-2-en-1-one], for which the Binding % result is given as “+++ (+++ indicates binding activity greater than 80%)”.

As for `[2H]C([2H])([2H])N(C1CN(c2nc(N3C[C@@H](C)N(C(=O)C=C)C[C@@H]3C)c3cc(Cl)c(-c4c(C)ccc5cnn(C6CC6)c45)c(F)c3n2)C1)C([2H])([2H])[2H]` [Compound 213, 1-((2R,5S)-4-((S)-6-chloro-7-(1-cyclopropyl-6-methyl-1H-indazol-7-yl)-2-(3-(di-perdeuteromethylamino)azetidin-1-yl)-8-fluoroquinazolin-4-yl)-2,5-dimethylpiperazin-1-yl)prop-2-en-1-one], the Binding % result is “+ (+ indicates binding activity greater than 0% and up to 50%)”.

Consider `[2H]C([2H])([2H])N(C1CN(c2nc(N3C[C@@H](C)N(C(=O)C=C)C[C@@H]3C)c3cc(Cl)c(-c4c(C)ccc5cnn(C6CC6)c45)c(F)c3n2)C1)C([2H])([2H])[2H]` [Compound 214, 1-((2R,5S)-4-((R)-6-chloro-7-(1-cyclopropyl-6-methyl-1H-indazol-7-yl)-2-(3-(di-perdeuteromethylamino)azetidin-1-yl)-8-fluoroquinazolin-4-yl)-2,5-dimethylpiperazin-1-yl)prop-2-en-1-one], for which the Binding % result is on record as “+++ (+++ indicates binding activity greater than 80%)”.
